Data reported in US20240342166A1, “PHARMACEUTICAL COMPOSITION FOR PREVENTING OR TREATING TUMOR, AND USE THEREOF” (TIUMBIO CO., LTD., priority 2021, published 2024).

How the values were obtained:
[1] = system: human peripheral blood mononuclear cells (hPBMCs); assay: In vitro IFN-γ secretion in TGF-β-inhibited, anti-CD3/anti-CD28-stimulated hPBMCs (ELISA); assay type: cell-based; details: treated with anti-CD3 antibodies, anti-CD28 antibodies and TGF-β; stimulated for 72 hours; IFN-γ ELISA of supernatants
Protocol: A 6-well plate was coated with anti-CD3 monoclonal antibodies (OKT3) at 4° C. overnight. Each well of the 6-well plate was suctioned with an antibody solution, and washed using PBS. hPBMCs were plated on the coated 6-well plate. In order to increase the reactivity of hPBMCs, culturing was performed for 5 days under the conditions of 37° C., 5% carbon dioxide humidification incubator. The hPBMCs cultured for 5 days were inoculated in a 96-well plate at a concentration of 1×10^5 cells/well. The hPBMCs inoculated in the 96-well plate were treated with lenvatinib or Compound 1 and the hPBMCs were incubated for 1 hour, then TGF-β was added thereto and the hPBMCs were cultured for 1 hour. […] After 72 hours, the supernatants were recovered and conventional IFN-γ ELISA was performed. The IFN-γ content generated for each group was measured. Data analysis was performed using Prism 5 (GraphPad Software, Inc.), and statistical analysis was performed using One-way ANOVA and Tukey's multiple comparison.

[2] = system: CT26 cell lines (Murine colon cancer cells); assay: Colorectal cancer mouse model (Example 2); assay type: in vivo; details: Day 26 from the drug administration date; groups without anti-CTLA-4 antibody; Compound 1 50 mg/kg twice a day p.o.; anti-PD-1 antibody 10 mg/kg once every three days i.p.; lenvatinib 10 mg/kg p.o.
Protocol: 170 female BALB/C mice, which were 6-8 weeks old, were purchased from OrientBio, and cancer cell lines were transplanted by subcutaneously injecting 7.5×10^5 CT26 cell lines (Murine colon cancer cells) into the right flank of each mouse.
The mice selected in Example 2.1 were assigned to the groups listed in Table 4 below, and vehicles or drugs were administered, and drug administration was initiated on Day 7 from the cell line inoculation date, and the study was terminated on Day 27 from the drug administration date.
In this case, the mouse tumor volume was calculated by the same method as the tumor volume calculation method of Example 1.1.2.
Tumor volume changes and weight changes for each group were statistically analyzed using Two-way ANOVA test, Bonferroni test, and one-tailed t-test.

[3] = system: MBT2 cell lines (Murine bladder cancer cells); assay: Bladder cancer mouse model (Example 5); details: tumor volume on Day 30 from the cell line inoculation date; responder = tumor volume less than 1/4 of 1,500 mm^3; Compound 1 alone 15 mg/kg twice a day, in combination 50 mg/kg twice a day p.o.; anti-PD-1 antibody 12.5 mg/kg twice a week i.p.
Protocol: C3H/HeN female mice, 7 weeks old, were purchased from OrientBio. 2.5×10^5 MBT2 cell lines (Murine bladder cancer cells) were injected subcutaneously into the right flank of each mouse to transplant a cancer cell line. The MBT2 cell line transplantation date was determined as Day 0, and the tumor volume was measured on Day 6.
A 0.9% physiological saline solution was prepared as a vehicle, and a mixed solution of an anti-PD-1 antibody (BioXCell) and PBS, and a mixed solution of Compound 1 and the vehicle were prepared as study drugs.
The mice selected in Example 5.1 were assigned to a control group, a group in which an anti-PD-1 antibody was administered, a group in which Compound 1 was administered, or a group in which Compound 1 was administered in combination with an anti-PD-1 antibody, respectively. Drugs were administered from Day 6 to Day 28 from the MBT2 cell line transplantation date.
The mouse tumor volume and weight were measured three times a week during the study period after the drug administration. The tumor volume was measured by the same method as the method for measuring the tumor volume in Example 1.1.2.

[4] = system: 4T1 cell lines (Murine breast cancer cells); assay: Breast cancer mouse model (Example 4); assay type: in vivo; details: Day 23 from the cell line inoculation date; Compound 1 50 mg/kg twice a day p.o.; anti-PD-1 or anti-CTLA-4 antibody 10 mg/kg every three days i.p.
Text: (§1) 60 female BALB/C mice, 6-8 weeks old, were purchased from Vital River Laboratories Research Model and Services Company.
The difference in tumor volumes was statistically analyzed using ANOVA and Tukey's multiple comparison test.

[5] = system: WEHI-164 cell lines (Murine sarcoma cells); assay: Sarcoma mouse model (Example 3); assay type: in vivo; details: Compound 1 50 mg/kg twice a day p.o.
Protocol: as §1
Drugs were administered from Day 7 to Day 23 from the WEHI-164 cell line transplantation date.
The difference in tumor volumes during the study period was statistically analyzed using one-tailed t-test, ANOVA and Tukey's multiple comparison test.

B16F10 cell lines = assay: Melanoma mouse model, anti-PD-1 antibody and Compound 1 (Example 1.1); assay type: in vivo; details: Day 15 from the drug administration date; C57BL/6 mice; Compound 1 50 mg/kg twice a day p.o.; anti-PD-1 antibody 10 mg/kg once every three days i.p.
Text: 40 female C57BL/6 mice, which were 6-8 weeks old, were purchased from OrientBio, and 1×10^6 B16F10 cell lines (KCLB, #80008) were subcutaneously injected into the right flank of each mouse, thereby transplanting the cancer cell lines thereto.
The mice were classified according to the mean and deviation of the tumor volume on Day 9.
A change in tumor volume for each group was statistically analyzed using Two-way ANOVA test.

Row | Structure (SMILES) | secretion of IFNγ in human PBMCs [1] | drop in tumor volume compared to the tumor volume of the control group (vehicle) [2] [%] | Response individual ratio (percent) [3] [%] | Response individual ratio (responders/mice) [3] | tumor volume reduced compared to the tumor volume of the control group [4] [%] | complete remission rate of the tumor ([5]; anti-CTLA-4 antibody 10 mg/kg once a week i.p., compared to the vehicle control group) [%] | tumor volume smaller than the tumor volume of the control group ([5]; Day 16 from the drug administration initiation date, anti-PD-1 antibody 10 mg/kg once a week i.p.) [%] | tumor volume lower than the tumor volume measured in the control group (B16F10 cell lines) [%]
1 | COc1cc2nccc(Oc3ccc(NC(=O)NC4CC4)c(Cl)c3)c2cc1C(N)=O [lenvatinib, reference compound] | increased secretion of IFNγ | 30 |  |  |  |  |  | 
2 | Cc1cccc(-c2nc3n(c2-c2ccc4ncnn4c2)CCN3)n1.O=P(O)(O)O [Compound 1, 6-(6-(6-methylpyridine-2-yl)-2,3-dihydro-1H-imidazo[1,2-a]imidazol-5-yl)-[1,2,4]triazole[1,5-a]pyridine phosphate] | increased secretion of IFNγ | 59 | 9 | 1/11 | 16 | 30 | 71 | 44
